Values quoted from earlier work in US20220202699A1 (priority 2020, published 2022).

Assays:
[1] = in vivo
[2] = system: inflammatory cell infiltrates (neutrophils and lymphocytes); settings: in vivo
[3] = system: Toll-like receptors (TLR); settings: suppress innate immunity
[4] = system: influenza A virus
[5] = system: influenza A virus; remark: listed apart in the source

SMILES	bronchodilator effect [1]	virus-induced proinflammatory cytokines [2]	functioning as deactivators of Toll-like receptors (TLR) [3]	binding affinity for the influenza A virus [4]	binding of the influenza A virus to the surrogate host cells [5]	membrane convergence of influenza A and host cell ([5]; influenza A, model MDCK cells)
CC(C)(C)NCC(O)c1ccc(O)c(CO)c1 (stereo not drawn) [Albuterol]	effective bronchodilator					
CCCCC/C=C\C/C=C\C/C=C\C/C=C\CCCC(=O)OC(COC(=O)CCCCCCCCCCCCCCCCC)COP(=O)(O)OC1C(O)C(O)C(O)C(O)C1O (stereo not drawn) [PI, phosphatidyl inositol]		reduced	deactivators of Toll-like receptors	high binding affinity	prevent the binding	inhibited
